Patent publication US11938121B2, “Treatment of infections and biofilm formation using a cellulose synthase inhibitor” (Purdue Research Foundation, priority 2020, dated 2024)

What was measured:
Komagataeibacter xylinus [1] = experiment: K. xylinus cell growth on HS solid medium; format: cell-based; conditions: 6 days
Text: Based on primary protein sequence analysis and a comparison of three-dimensional protein structures, the catalytic sites of cellulose synthases are highly conserved across kingdoms (Huang et al., 2020, Purushotham et al., 2020). The amino acids that are directly involved in glucan chain initiation, elongation, and translocation are conserved between plant and bacterial cellulose synthases (Huang et al., 2020). Based on the conservation of catalytic sites in cellulose synthases, we hypothesized that ES20 and ES20-1 would inhibit bacterial cellulose biosynthesis as well. We chose to test the effects of ES20 and ES20-1 on cell growth and cellulose production in Komagataeibacter xylinus (K. xylinus, previously known as Gluconacetobacter xylinus) because this bacterium produces abundant cellulose. We first tested whether ES20 and ES20-1 affect K. xylinus cell growth. We grew K. xylinus cells in liquid […] (HS) medium and then we inoculated 20 μL of series diluted culture to HS solid growth medium supplemented with DMSO (0.1%) or different concentrations of ES20 and ES20-1. […] We found ES20 and ES20-1 affect K. xylinus colony morphology as well. […] Wrinkles radiating structure is often observed in cellulose-producing bacteria strains and this structure is often affected when cellulose biosynthesis is disrupted.
Komagataeibacter xylinus (previously named Gluconacetobacter xylinus) ATCC strain 700178 was obtained from ATCC (Manassas, Va., USA) to evaluate cellulose production. HS (Hestrin and Schramm) medium was used for culture; HS liquid medium contains 2.0% glucose (w/v), 0.5% yeast extract (w/v), 0.5% peptone (w/v), 0.27% Na2HPO4 (w/v), and 0.15% citric acid (w/v), pH 5.0, and HS solid medium was solidified with 1.8% agar (w/v). To prepare the initial inoculation source, a single K. xylinus colony grown on HS solid medium was transferred to HS liquid medium and cultured at 26° C. for 5 days under static conditions. We used cells from the bottom of the liquid culture as the initial inoculation source to avoid biofilm aggregates at the air-liquid interface. To test the effect of ES20 and ES20-1 on the bacteria growth, initial inoculation source was series diluted and 20 μL culture from each diluted solution was dropped on HS solid medium supplemented with DMSO (0.1%) or different concentrations of ES20 and ES20-1 and cultured at 26° C. for 6 days after the dropped culture was completely dry. To test the effects of ES20 and ES20-1 on cellulose production, the prepared inoculation source was inoculated at a dilution ratio of 1:1000 dilution in HS liquid medium supplemented with 0.1% DMSO or 20 μM of ES20 or ES20-1. Static cultivation was carried out in a 26° C. incubator, and agitated cultivation was carried out at 26° C. with shaking at 220 rpm. […]

Komagataeibacter xylinus [2] = experiment: K. xylinus cellulose production in liquid culture; format: cell-based; conditions: 20 μM
Text: We next grew K. xylinus cells in growth medium supplemented with DMSO, ES20, or ES20-1 under agitation. […] We also grew K. xylinus in liquid medium supplemented with DMSO, ES20, or ES20-1 under static cultivation conditions. Without agitation, pellicles containing cellulose often form at the air-liquid interface. […] To quantify the effects of ES20 and ES20-1 on cellulose production, we harvested the pellicles from these cultures and isolated cellulose from the pellicles.
Komagataeibacter xylinus (previously named Gluconacetobacter xylinus) ATCC strain 700178 was obtained from ATCC (Manassas, Va., USA) to evaluate cellulose production. HS (Hestrin and Schramm) medium was used for culture; HS liquid medium contains 2.0% glucose (w/v), 0.5% yeast extract (w/v), 0.5% peptone (w/v), 0.27% Na2HPO4 (w/v), and 0.15% citric acid (w/v), pH 5.0, and HS solid medium was solidified with 1.8% agar (w/v). To prepare the initial inoculation source, a single K. xylinus colony grown on HS solid medium was transferred to HS liquid medium and cultured at 26° C. for 5 days under static conditions. We used cells from the bottom of the liquid culture as the initial inoculation source to avoid biofilm aggregates at the air-liquid interface. To test the effect of ES20 and ES20-1 on the bacteria growth, initial inoculation source was series diluted and 20 μL culture from each diluted solution was dropped on HS solid medium supplemented with DMSO (0.1%) or different concentrations of ES20 and ES20-1 and cultured at 26° C. for 6 days after the dropped culture was completely dry. To test the effects of ES20 and ES20-1 on cellulose production, the prepared inoculation source was inoculated at a dilution ratio of 1:1000 dilution in HS liquid medium supplemented with 0.1% DMSO or 20 μM of ES20 or ES20-1. Static cultivation was carried out in a 26° C. incubator, and agitated cultivation was carried out at 26° C. with shaking at 220 rpm. To isolate cellulose from pellicles, the pellicles were removed from liquid culture, washed several times with deionized water, and soaked in 0.1 M NaOH at 80° C. for 2 h. The pellicles were washed several times with deionized water to completely remove the alkali. The purified cellulose was dried at 60° C. for ˜1 day until a constant dry mass was reached.

[3] = 5 days static cultivation, vs DMSO

Cc1ccccc1C(=O)NNC(=S)NC(=O)c1ccccc1 [ES20-1]
K. xylinus cell growth inhibition (Komagataeibacter xylinus [1]; 20 μM and 50 μM): inhibit K. xylinus cell growth at both 20 μM and 50 μM concentrations
K. xylinus colony morphology (wrinkles radiating structures) (Komagataeibacter xylinus [1]; 20 μM): the wrinkles are not obvious
size of cellulose clusters (Komagataeibacter xylinus [2]; 5 days agitated cultivation, vs DMSO): smaller
dry mass of cellulose from pellicles (Komagataeibacter xylinus [2]; 5 days static cultivation, mean±SD, n=9): 346 ± 152 mg/L
decrease of dry mass of cellulose from pellicles (Komagataeibacter xylinus [2]; [3]): ~30%
pellicle thickness (Komagataeibacter xylinus [2]; [3]): pellicles in cultures containing DMSO are thicker
